# In PubChem BioAssay (NCI):
#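 1) Cells in 96-well plates. 2) Compound, 48 h, 5 concentrations. 3) Linear interpolation between surrounding doses. 4) Unreached endpoint = highest concentration. GI50: concentration for 50% inhibition of growth. TGI denotes the concentration required for complete inhibition of growth.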
# Columns and labels:
# Experiment in all cases: inhibition of tumour cell growth, NCI panel, 48 h
# [1] = system: CAKI-1 renal
# [2] = system: COLO 205 colon
# [3] = system: LOX IMVI melanoma
# [4] = system: MALME-3M melanoma
# [5] = system: NCI-H23 lung
# [6] = system: NCI-H522 lung
# [7] = system: OVCAR-5 ovarian
# [8] = system: SK-MEL-28 melanoma
# [9] = system: SNB-75 CNS
# [10] = system: NCI/ADR-RES ovarian
SMILES,TGI [1],TGI [2],TGI [3],TGI [4],TGI [5],TGI [6],TGI [7],TGI [8],TGI [9],GI50 [1],GI50 [2],GI50 [4],GI50 [5],GI50 [6],GI50 [10],TGI [10],GI50 [7],GI50 [8],GI50 [3],GI50 [9]
O=C(OCc1ccccc1)n1cccc1,> 100 µM,> 100 µM,> 100 µM,> 100 µM,> 100 µM,> 100 µM,> 100 µM,> 100 µM,> 100 µM,,,,,,,,,,,
C=C1C(C(=O)O)C1C(=O)O (stereo unspecified),> 100 µM,,> 100 µM,> 100 µM,> 100 µM,> 100 µM,> 100 µM,> 100 µM,> 100 µM,,,,,,,,,,,
CC(C)(C)OC1=C(OC(C)(C)C)C(O)(c2ccc(Cl)cc2)C1=O (stereo unspecified),,> 100 µM,> 100 µM,> 100 µM,> 100 µM,,> 100 µM,> 100 µM,> 100 µM,,,,,,,,,,,
Cc1ccc(/C(=C/C=C(C#N)C#N)Sc2nc3ccccc3s2)cc1,8.35 µM,16 µM,,6.57 µM,11.6 µM,32.9 µM,42.1 µM,23.9 µM,,2.72 µM,3.84 µM,2.52 µM,3.36 µM,7.36 µM,4.24 µM,18.7 µM,24.1 µM,5.14 µM,,
CC[P+]1(c2ccccc2)CCCCC1,> 100 µM,> 100 µM,> 100 µM,> 100 µM,> 100 µM,,> 100 µM,> 100 µM,> 100 µM,,,,,,,,,,,
CC1(C)CN(CCNc2nccc(-c3c(-c4cccc(O)c4)nc4sccn34)n2)S(=O)(=O)N1,> 27.2 µM,7.25 µM,> 33.2 µM,,> 33.2 µM,> 33.2 µM,> 33.2 µM,> 33.2 µM,> 33.2 µM,6.12 µM,0.448 µM,,16.8 µM,8.52 µM,> 33.2 µM,> 33.2 µM,> 33.2 µM,0.268 µM,1.82 µM,5.14 µM
O=C1C2C3C=C4c5ccccc5N(c5ccccc5)C4([C@@H]2C(=O)N1c1ccc(F)cc1)[C@H]1C(=O)N(c2ccc(F)cc2)C(=O)[C@@H]31 (stereo partly specified),,> 100 µM,> 100 µM,> 100 µM,> 100 µM,> 100 µM,> 100 µM,> 100 µM,> 100 µM,,,,,,,,,,,
Cc1ccc(C2C3Cc4ccccc4C3=NN2c2ccc(S(=O)(=O)NC(=O)Nc3ccccc3)cc2)cc1 (stereo unspecified),37.9 µM,53.3 µM,27.9 µM,,31.9 µM,28.7 µM,30.5 µM,52.5 µM,47.8 µM,14.6 µM,18.6 µM,,14.9 µM,10.6 µM,14.7 µM,38.8 µM,14.5 µM,22.6 µM,13.5 µM,17.9 µM
N#CC(C#N)=C1CCC2C(=C(C#N)C#N)CCC12 (stereo unspecified),> 100 µM,> 100 µM,> 100 µM,> 100 µM,> 100 µM,> 100 µM,> 100 µM,,> 100 µM,,,,,,,,,,,
CC(=N/NC(N)=S)/C(C)=N/NC(N)=S,,> 100 µM,> 100 µM,> 100 µM,> 100 µM,> 100 µM,> 100 µM,> 100 µM,> 100 µM,,,,,,,> 100 µM,,,,
CSc1cc(C(C)(C)C)ccc1C(O)c1ccc(C(C)(C)C)cc1SC,24.9 µM,23 µM,24.3 µM,29.9 µM,29.8 µM,21.9 µM,27 µM,39.3 µM,32.3 µM,,,,,,,,,,,
C=CCC1C(=O)CC2(C)C(CC=C)C(=O)CC12C (stereo unspecified),> 100 µM,> 100 µM,> 100 µM,> 100 µM,> 100 µM,> 100 µM,> 100 µM,> 100 µM,> 100 µM,,,,,,,,,,,
N#CC1=C(c2ccccc2)OC2(N)OC(c3ccccc3)=C(C#N)C12C#N (stereo unspecified),> 100 µM,> 100 µM,> 100 µM,> 100 µM,> 100 µM,,> 100 µM,> 100 µM,> 100 µM,,,,,,,,,,,
CC1OC(CC2C=CCc3c(O)c4c(c(O)c32)C(=O)c2ccccc2C4=O)CC(NC(=O)C(F)(F)F)C1O (stereo unspecified),20.7 µM,53.4 µM,20.6 µM,10.1 µM,20.7 µM,44.9 µM,> 100 µM,16.1 µM,5.8 µM,,,,,,,,,,,
CCOC(=O)c1cc2c(n1Cc1cc(OC)cc(OC)c1)-c1oncc1CC2,> 100 µM,0.616 µM,> 100 µM,,> 100 µM,> 91.5 µM,> 100 µM,> 100 µM,> 100 µM,0.102 µM,0.182 µM,,0.307 µM,0.0404 µM,0.0486 µM,,0.474 µM,0.25 µM,0.593 µM,0.111 µM
Cc1ccc(NC(=O)CCC(=O)C2Cc3ccccc3C2=O)cc1C (stereo unspecified),> 100 µM,> 100 µM,> 100 µM,> 100 µM,> 100 µM,> 100 µM,> 100 µM,> 100 µM,> 100 µM,,,,,,,,,,,
O=C(c1ccc(Nc2nccc(NCCCCNc3ccnc4cc(Cl)ccc34)n2)cc1)N1CCCCC1,8.84 µM,3.25 µM,2.33 µM,,15.7 µM,4.89 µM,25.9 µM,4.67 µM,3.35 µM,2.77 µM,1.52 µM,,2.95 µM,2.22 µM,12.6 µM,> 100 µM,4.32 µM,2.04 µM,0.971 µM,1.58 µM
C=CCN1C(=O)[C@]2(SC1=S)[C@H](c1cccc(Cl)c1)CN(C)[C@]21C(=O)NC2C=CC(Cl)=C[C@H]21 (stereo partly specified),,4.35 µM,3.95 µM,12.7 µM,22 µM,20.6 µM,18.1 µM,27.8 µM,18.2 µM,,1.78 µM,2.88 µM,6.12 µM,5.79 µM,4.18 µM,21.2 µM,4.35 µM,10.9 µM,1.73 µM,2.37 µM

SMILES,TGI [1],TGI [2],TGI [3],TGI [4],TGI [5],TGI [6],TGI [7],TGI [8],TGI [9],GI50 [1],GI50 [2],GI50 [4],GI50 [5],GI50 [6],GI50 [10],TGI [10],GI50 [7],GI50 [8],GI50 [3],GI50 [9]
O=C(Nc1ccc(Cl)cc1)N1CCN(c2ccc3nncn3n2)CC1,> 100 µM,> 100 µM,> 100 µM,> 100 µM,> 100 µM,,> 100 µM,> 100 µM,> 100 µM,30.3 µM,51.6 µM,89.1 µM,42.3 µM,,> 100 µM,> 100 µM,> 100 µM,> 100 µM,92.4 µM,> 100 µM
CN(C)CCNC(=O)c1cccc2c1nc(-c1ccncc1)c1ccccc12,24.5 µM,9.66 µM,3.66 µM,,13.1 µM,,23.7 µM,17.6 µM,15.8 µM,,,,,,,,,,,
C=C1C(=O)O[C@H]2[C@H]1CC/C(COC(=O)N[C@H](Cc1c[nH]c3ccccc13)C(=O)OC)=C\CC[C@@]1(C)O[C@@H]21,,3.76 µM,2.85 µM,4.24 µM,17.7 µM,3.22 µM,13.8 µM,4.48 µM,22.5 µM,,1.81 µM,1.95 µM,4.3 µM,1.52 µM,10.6 µM,37.9 µM,3.25 µM,1.96 µM,1.36 µM,8.35 µM
CC(=O)c1ccc(Oc2c3ccccc3nc3occc23)cc1,,> 100 µM,> 100 µM,> 100 µM,> 100 µM,> 100 µM,> 100 µM,> 100 µM,> 100 µM,,24.1 µM,4.14 µM,18.9 µM,4.68 µM,2.52 µM,9.81 µM,27.3 µM,41.2 µM,6.35 µM,21.1 µM
O=C1CCc2ccc(O)c(c2)Oc2ccc(cc2)[C@@H]2O[C@@H]2CO1,> 100 µM,> 100 µM,> 100 µM,62.1 µM,> 100 µM,,> 100 µM,> 100 µM,> 100 µM,,,,,,,,,,,
CC(=O)[CH-]C(=O)c1ccccc1.CC(=O)[CH-]C(=O)c1ccccc1.CC(=O)[CH-]C(=O)c1ccccc1.[Br-].[Zr+4],> 100 µM,> 100 µM,> 100 µM,55.3 µM,> 100 µM,> 100 µM,> 100 µM,> 100 µM,> 100 µM,37.2 µM,> 100 µM,20.2 µM,> 100 µM,93.2 µM,,,29.8 µM,55.3 µM,89.7 µM,34 µM
CCOC(=O)c1cc(C(=O)c2cc(OC)c(OC)c(OC)c2)n2ccc(-c3cc[n+](CC(=O)c4cc(OC)c(OC)c(OC)c4)cc3)cc12,,,,3.68 µM,,5.04 µM,5.24 µM,3.6 µM,3.36 µM,,,1.73 µM,,2.13 µM,> 100 µM,> 100 µM,1.84 µM,1.75 µM,,1.46 µM
CCc1ccccc1NC(=O)C(=O)C(C#N)c1c(Cl)cccc1Cl (stereo unspecified),> 100 µM,,> 100 µM,> 100 µM,> 100 µM,> 100 µM,,> 100 µM,> 100 µM,,,,,,,,,,,
CCCCNCCCCCNc1cc(OC)cc2cccnc12,37.7 µM,33.8 µM,> 100 µM,42.9 µM,31.7 µM,33.8 µM,30.9 µM,,,18.4 µM,17.2 µM,18 µM,15.9 µM,17.5 µM,17.2 µM,36.4 µM,15.1 µM,,34.8 µM,
CCOP(=O)(OCC)C(NC(c1ccccc1)c1ccccc1)c1ccc(C(C)C)cc1 (stereo unspecified),13.1 µM,,16 µM,,20.7 µM,29.6 µM,,52 µM,25.9 µM,3.23 µM,,,6.38 µM,6.98 µM,2.14 µM,7.52 µM,,11.9 µM,4.33 µM,5.28 µM
C/C=C1/C(=Cc2[nH]c(C=c3[nH]/c(=C/C4=NC(=O)C(CC)=C4C)c(C)c3CCC(=O)O)c(CCC(=O)O)c2C)NC(=O)C1C (stereo unspecified),> 50 µM,> 50 µM,2.61 µM,31.9 µM,> 50 µM,39.7 µM,27.4 µM,> 50 µM,> 50 µM,,,,,,,,,,,
CC(=O)O[C@H]1CC[C@]2(C)C3C(=O)C[C@]4(C)[C@@H](C(C)CCC(=O)O)CC[C@@]4(C)[C@@H]3CC[C@H]2C1(C)C (stereo partly specified),46.1 µM,> 50 µM,20.7 µM,,> 50 µM,> 50 µM,> 50 µM,> 50 µM,> 50 µM,20.8 µM,20.9 µM,,19.1 µM,> 50 µM,16.5 µM,> 50 µM,> 50 µM,28.6 µM,7.64 µM,42.7 µM
O=C(O)CCSC(=O)Nc1ccccc1,> 100 µM,> 100 µM,> 100 µM,,> 100 µM,,> 100 µM,> 100 µM,,,,,,,,,,,,
FC(F)(F)c1nc(Br)[nH]c1C(F)(F)F,> 100 µM,> 100 µM,> 100 µM,> 100 µM,> 100 µM,,> 100 µM,> 100 µM,> 100 µM,,,,,,,,,,,
O=C(NCc1ccccc1)C1C(=O)C(=O)N(Cc2ccccc2)C1=O (stereo unspecified),> 100 µM,> 100 µM,> 100 µM,> 100 µM,> 100 µM,> 100 µM,> 100 µM,> 100 µM,> 100 µM,,,,,,,,,,,
N/C(=N/S(=O)(=O)c1cc(C(=O)Nc2ccc(F)cc2)c(Cl)cc1SCc1ccccc1)Nc1ccccc1O,> 100 µM,> 100 µM,3.41 µM,,3.86 µM,12.5 µM,31.3 µM,4.33 µM,3.84 µM,23.8 µM,4.1 µM,,2.04 µM,3.88 µM,> 100 µM,> 100 µM,16.4 µM,2.14 µM,1.76 µM,1.96 µM
CCOC(=O)c1ccc(NC(=O)c2cccc(NC3=C(Cl)C(=O)N(Cc4ccccc4)C3=O)c2)cc1,> 100 µM,> 100 µM,> 100 µM,,,> 100 µM,,> 100 µM,> 100 µM,> 100 µM,> 100 µM,,,62.9 µM,,,,> 100 µM,60.3 µM,> 100 µM
O=C1c2ccccc2C(=O)c2sc(Nc3ccc([N+](=O)[O-])cc3)nc21,12 µM,19 µM,4.66 µM,12.6 µM,9.77 µM,6.35 µM,29.8 µM,25.7 µM,21.1 µM,,,,,,,,,,,
